Among the data in patent US6492302B1, “Compositions for the protection of plants against the stress of oxidation” (priority 1998, dated 2002) are antioxidant properties values, retold here.

This assay is described as follows: antioxidant properties of lipo-amino acids.

butyryl-cystine: the antioxidant properties entry is listed as “does not possess these properties”.
